Earlier results, collected in patent publication US20260183398A1, “RADIOLUMINESCENT NANOPARTICLES FOR RADIATION-TRIGGERED CONTROLLED RELEASE DRUGS” (Purdue Research Foundation, priority 2017, published 2026).

Legend:
[1] = reported
[2] = PTX intratumorally delivered to mouse xenografts in the polymer encapsulated form
[3] = systemic chemotherapy, about 200 mg/m2

## CC(=O)O[C@H]1C(=O)[C@@]2(C)[C@H]([C@H](OC(=O)c3ccccc3)[C@]3(O)C[C@H](OC(=O)[C@H](O)[C@@H](NC(=O)c4ccccc4)c4ccccc4)C(C)=C1C3(C)C)[C@]1(OC(C)=O)CO[C@@H]1C[C@@H]2O [PTX, paclitaxel]
[1]
  in vitro IC90: ≈ 0.09 μg PTX per mg tumor
  in vitro IC90 (PTX concentration giving rise to 90% cell kill in vitro): about 90 μg/mL
[2]
  tumor elimination rate constant ket: 0,005 h^−1
[3]
  patients with dermatological side effects (skin, hair, nail): 86.8%
